Experimental data: US10233195B2, “Anti-fibrotic pyridinones” (InterMune, Inc., priority 2014, dated 2019)

tested on: TGF-b induced Endothelin-1 production; test: ET-1 assay: inhibitory effect on TGF-b induced endothelin-1 production; type: cell-based; conditions: Homo sapiens, Fibroblast; fibroblasts, stimulant (TGFb, serum, LPA etc), ET-1 in media by ELISA, 4-parameter fit
How it was run: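 Fibroblasts (primary human lung/dermal, HFL-1, 3T3) serum-starved 0-48 h, preincubated ~30 min with compound, then stimulated (TGFb, serum or LPA) for 16-48 h. Secreted ET-1 measured by ELISA; EC50 from 4-parameter logistic fit, with CC50 from ATPlite in the same wells.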

For `Cc1cc(=O)n(-c2ccccc2)cc1-c1ccc(F)cc1` [Compound 176], which EC50 is on record?
Its EC50 is 50 to 200 µM.

Which EC50 does the source give for `Cn1cc(-c2cn(-c3ccc(OC(F)(F)F)cc3)c(=O)cc2NCCc2ccccc2)cn1` [Compound 131] here?
Its EC50 is over 200 µM.

How did the EC50 turn out when `Cc1ccc(F)c(-c2ccccc2)c1` [Compound 440] was run?
The EC50 was over 200 µM.

For `Cn1cc(-c2cn(-c3ccc(OC(F)(F)F)cc3)c(=O)cc2N)cn1` [Compound 124], which EC50 is on record?
Its EC50 is over 200 µM.

Which EC50 does the source give for `CCOc1ccc(-n2cc(-c3cnn(C)c3)c(OC3CCOCC3)cc2=O)c(C)c1` [Compound 698] here?
Its EC50 is 50 to 200 µM.

Which EC50 does the source give for `Cn1cc(-c2cn(-c3ccc(OC(F)(F)F)cc3)c(=O)cc2N2CCc3ccccc3C2)cn1` [Compound 129] here?
The EC50 was 50 to 200 µM.

Which EC50 does the source give for `Cc1cc(=O)n(-c2ccc(OC(F)(F)F)cc2)cc1-c1ccnn1C` [Compound 247] here?
Its EC50 is over 200 µM.

`CNc1cc(=O)n(-c2ccc(OC(F)(F)F)cc2)cc1-c1cnn(C)c1` [Compound 125] was tested. Which EC50 did it give?
Its EC50 is over 200 µM.

`CC(C)Oc1ccc(-n2cc(-c3ccc(S(N)(=O)=O)cc3)ccc2=O)cc1` [Compound 330] was tested. Which EC50 did it give?
Its EC50 is over 200 µM.

Which EC50 does the source give for `Cc1ccc2c(c1)CC(=O)N2c1ccc(OC(F)(F)F)cc1` [Compound 82] here?
Its EC50 is over 200 µM.

How did the EC50 turn out when `CCOc1ccc(-n2cc(-c3ccc(F)cc3)c3nccnc3c2=O)c(C)c1` [Compound 62] was run?
Its EC50 is over 200 µM.

How did the EC50 turn out when `O=c1cc2ccccc2cn1-c1ccccc1` [Compound 354] was run?
The EC50 was 50 to 200 µM.

Which EC50 does the source give for `CCOc1ccc(-n2cc(-c3cnn(C)c3)c(NCc3ccc(F)cc3F)cc2=O)c(C)c1` [Compound 702] here?
Its EC50 is under 50 µM.

How did the EC50 turn out when `O=c1c2c(c(-c3ccc(F)cc3)cn1-c1ccc(OC(F)(F)F)cc1)CCCC2` [Compound 32] was run?
Its EC50 is over 200 µM.

`CC(C)Oc1ccc(-n2cc(-c3ccc(F)cc3)ccc2=O)cc1` [Compound 288] was tested. Which EC50 did it give?
Its EC50 is 50 to 200 µM.

With `O=C1CCCN1CCOc1cc(=O)n(-c2ccc(OC(F)(F)F)cc2)cc1-c1ccc(F)cc1` [Compound 97] as the molecule, how does the EC50 read?
The EC50 was over 200 µM.

How did the EC50 turn out when `Cc1cc(=O)n(-c2ccccc2F)cc1-c1ccc(F)cc1` [Compound 178] was run?
Its EC50 is 50 to 200 µM.

How did the EC50 turn out when `CCOc1ccc(-n2cc(-c3cnn(C)c3)c(N(C)Cc3ccccc3)cc2=O)c(C)c1` [Compound 705] was run?
The EC50 was under 50 µM.

`O=c1cc(C(F)(F)F)c(-c2ccc(F)cc2)cn1-c1ccc(OC(F)(F)F)cc1` [Compound 205] was tested. Which EC50 did it give?
The EC50 was 50 to 200 µM.

Which EC50 does the source give for `N#Cc1cc(=O)n(-c2ccc(OC(F)(F)F)cc2)cc1-c1ccc(F)cc1` [Compound 401] here?
The EC50 was over 200 µM.

For `CC(=O)N1CCc2c(-c3cnn(C)c3)cn(-c3ccc(OC(F)(F)F)cc3)c(=O)c21` [Compound 693], which EC50 is on record?
The EC50 was 50 to 200 µM.

For `Cn1cc(-c2cn(-c3ccc(OC(F)(F)F)cc3)c(=O)cc2N2CCCCC2)cn1` [Compound 127], which EC50 is on record?
The EC50 was over 200 µM.

For `Cn1cc(-c2cn(-c3ccc(OC(F)(F)F)cc3)c(=O)c3cc[nH]c23)cn1` [Compound 695], which EC50 is on record?
Its EC50 is under 50 µM.

With `Cn1cc(-c2cn(-c3ccc(O)cc3)c(=O)cc2Oc2ccccc2)cn1` [Compound 545] as the molecule, how does the EC50 read?
Its EC50 is over 200 µM.

With `COc1ccc(CN(C)c2cc(=O)n(-c3ccc(OC(F)(F)F)cc3)cc2-c2cnn(C)c2)cc1` [Compound 135] as the molecule, how does the EC50 read?
The EC50 was 50 to 200 µM.

`CCCC(=O)Nc1cc(=O)n(-c2ccc(OC(F)(F)F)cc2)cc1-c1ccc(F)cc1` [Compound 110] was tested. Which EC50 did it give?
The EC50 was over 200 µM.

Which EC50 does the source give for `CN1CCN(CCOc2cc(=O)n(-c3ccc(OC(F)(F)F)cc3)cc2-c2cnn(C)c2)CC1` [Compound 152] here?
Its EC50 is 50 to 200 µM.

With `Cc1cc(=O)n(-c2ccc(F)cc2)cc1-c1ccc(OC(F)(F)F)cc1` [Compound 212] as the molecule, how does the EC50 read?
Its EC50 is 50 to 200 µM.

For `O=C(NCc1ccccc1)Nc1cc(=O)n(-c2ccc(OC(F)(F)F)cc2)cc1-c1ccc(F)cc1` [Compound 116], which EC50 is on record?
The EC50 was over 200 µM.

Which EC50 does the source give for `COCCOc1ccc(-n2cc(-c3cn[nH]c3)c(C)cc2=O)cc1` [Compound 24] here?
The EC50 was over 200 µM.

With `Cc1cc(=O)n(-c2ccc(Cl)cc2C)cc1-c1ccccc1` [Compound 169] as the molecule, how does the EC50 read?
The EC50 was 50 to 200 µM.

`O=c1ccc(-c2ccc(F)cc2)cn1-c1ccccc1Cl` [Compound 291] was tested. Which EC50 did it give?
The EC50 was over 200 µM.

For `CCCOC(=O)Nc1cc(=O)n(-c2ccc(OC(F)(F)F)cc2)cc1-c1ccc(F)cc1` [Compound 105], which EC50 is on record?
The EC50 was over 200 µM.

`Cc1nc2ccn(-c3ccc(OC(F)(F)F)cc3)c(=O)c2s1` [compound 585] was tested. Which EC50 did it give?
The EC50 was over 200 µM.
